Assay results reported in patent publication US9556153B1, “JAK1 inhibitors” (Eli Lilly and Company, priority 2015, dated 2017).

Experiments:
[1] = tested on: pSTAT3 expression in the H1975 xenograft; assay: pSTAT3 Rat IVTI (JAK1) Assay, H1975 xenograft; format: in vivo; settings: single oral dose, two hours, n=1
Procedure: pSTAT3 Rat IVTI (JAK1) Assay
The purpose of this assay is to measure the ability of test compounds to inhibit the pSTAT3 expression in the H1975 xenograft rat model. Grow H1975 cells according to ATCC specifications at the lowest possible passage number available. Culture and maintain cells in RPMI-1640 supplemented with 10% FBS and incubated at 37° C. in 5% CO2. Harvest cells by standard techniques and mix with BD Biosciences basement membrane matrix (MATRIGEL®) to achieve a 1:1 cell/matrix ratio yielding an inoculation volume of 0.2 mL cell/matrix suspension containing 2e6 cells. Keep cell suspensions on ice throughout the inoculation procedure and start implantations within one hour after cell culture harvest. […] Time course studies are a single dose administered at the TED70 determined from the dose response study. […]
Harvest and cut tumors to yield approximately 200-250 mm^3 size fragments and immediately drop into a 12×75 mm tube containing 1 mL of ice cold MSD Tris Lysis buffer (Meso Scale Discovery cat# R60TX-2) and 1×HALT (Thermo Scientific product #1861281). […] Cool plate to RT and measure absorbance at or near 562 nm on Molecular Devices Spectra Max. Protein concentrations for each sample are determined using SoftMax Pro 6.3 software program. After tumor samples are quantitated, freeze at −80° C. in the 96 well polypropylene plate and assay at a later date. […]

JAK2 = JAK2 (Homo sapiens, UniProt O60674); assay: AlphaScreen SureFire p-STAT5 (p-Tyr694/699)-EPO-JAK2 cell-based assay (UT-7 cells); design: purchased Invitrogen; settings: EPO 45 ng/mL, n=5, read-out: IC50, EPO-stimulated pSTAT5 JAK2 cell-based assay
Procedure: AlphaScreen SureFire Protocol p-STAT5 (p-Tyr694/699)-EPO-JAK2 Cell-Based Assay
The fold selectivity of test compounds for JAK1 over JAK2 is determined by a cellular assay, in which EPO is used to activate JAK2-STAT5 pathway, and pSTAT5 is used as the readout.
Starve UT-7 cells overnight in DMEM medium with 0.5% […] (FBS) and 1× Pen/Strep at 37° C. (without GM-CSF). Plate 50000 cells per well in BD 96 well black plates with clear bottoms (in medium without FBS and GM-CSF). Maintain the plates at RT for 30-60 minutes before incubating overnight at 37° C. and 5% CO2. Count cells using Vi-Cell counter, use a cell suspension at 500000 cells/mL and plated 100 μL/well in […] Biocoat plates Catalog #354640. […]
Follow the following steps sequentially: make acceptor mix (activation buffer/reaction buffer/acceptor beads); transfer 4 μL lysate from 96 well plates to 384 well-Proxiplate; add 5 μL acceptor mix to 384 proxiplate plate(s) with multidrop combi; seal plates with aluminum seal; shake 1-2 minutes on plate shaker; incubate plate at RT for 2 hr with gentle shaking; make donor mix (donor beads in dilution buffer); add 2 μl donor mix to assay plates with multidrop combi; seal plates with aluminum seal; shake 1-2 minutes on plate shaker; incubate at RT for 2 hr with gentle shaking; read plate with Envision; protocol AlphaScreen Surefire 384.

JAK2, sequence (O60674 whole entry): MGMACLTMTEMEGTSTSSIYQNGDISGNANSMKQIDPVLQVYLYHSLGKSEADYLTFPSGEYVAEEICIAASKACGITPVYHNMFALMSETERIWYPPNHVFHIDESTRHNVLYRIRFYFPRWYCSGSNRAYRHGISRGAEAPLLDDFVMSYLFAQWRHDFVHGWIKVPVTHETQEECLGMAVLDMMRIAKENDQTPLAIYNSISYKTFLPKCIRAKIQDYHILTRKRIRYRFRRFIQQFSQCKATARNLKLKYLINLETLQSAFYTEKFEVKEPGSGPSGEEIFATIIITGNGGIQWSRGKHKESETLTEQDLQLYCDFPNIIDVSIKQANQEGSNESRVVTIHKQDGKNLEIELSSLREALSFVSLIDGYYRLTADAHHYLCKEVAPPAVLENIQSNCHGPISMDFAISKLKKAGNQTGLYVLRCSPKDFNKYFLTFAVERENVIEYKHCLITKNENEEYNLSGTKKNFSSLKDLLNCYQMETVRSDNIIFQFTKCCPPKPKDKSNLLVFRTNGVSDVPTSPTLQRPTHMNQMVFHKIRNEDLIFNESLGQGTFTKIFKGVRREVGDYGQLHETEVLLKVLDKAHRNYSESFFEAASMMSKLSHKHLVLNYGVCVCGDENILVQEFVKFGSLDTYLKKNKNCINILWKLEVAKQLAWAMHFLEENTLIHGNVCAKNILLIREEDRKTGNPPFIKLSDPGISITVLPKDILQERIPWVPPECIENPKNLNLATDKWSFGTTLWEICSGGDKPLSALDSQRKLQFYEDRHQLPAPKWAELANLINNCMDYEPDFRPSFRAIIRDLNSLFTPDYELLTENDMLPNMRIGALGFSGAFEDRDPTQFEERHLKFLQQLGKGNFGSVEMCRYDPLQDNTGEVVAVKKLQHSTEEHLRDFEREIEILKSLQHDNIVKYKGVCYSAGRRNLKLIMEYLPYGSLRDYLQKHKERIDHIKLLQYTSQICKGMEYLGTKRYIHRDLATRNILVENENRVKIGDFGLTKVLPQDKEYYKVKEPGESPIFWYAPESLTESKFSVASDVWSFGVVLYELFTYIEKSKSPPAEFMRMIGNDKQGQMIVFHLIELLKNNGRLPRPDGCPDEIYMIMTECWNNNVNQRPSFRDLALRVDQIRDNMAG

IC50 (JAK2): 11.8 µM
Compound: Cc1cc(Nc2cc(O[C@H]3CC[C@@H](NC[C@@H](O)C(F)(F)F)CC3)cc3c2ncn3C)nn1C [Example 1, (2R)-3-{[cis-4-({4-[(1,5-Dimethyl-1H-pyrazol-3-yl)amino]-1-methyl-1H-benzimidazol-6-yl}oxy)cyclohexyl]amino}-1,1,1-trifluoropropan-2-ol]
TEC50 (plasma concentration required to achieve 50% pSTAT3 inhibition) [1]: 3.9 μM
TED50 (dose necessary to achieve 50% pSTAT3 inhibition) [1]: 9 mg/kg
